Measurements reported in patent US10954549B2, “Detection and classification of an anticoagulant using a clotting assay” (Haemonetics Corporation, priority 2014, dated 2021).

Key:
citrated whole blood [1] = test: TEG kaolin with ecarin test of spiked blood; assay type: biochemical, human
Source text: (§1) The TEG clotting assay was used to determine if low, normal, and high doses of dabigatran, rivaroxaban, and apixaban could be detected in blood spiked with these compounds. Three oral anticoagulants (OAC), namely dabigatran, rivaroxaban, and apixaban, were spiked into blood obtained from 14 healthy volunteer human donors. For each OAC tested, citrated blood from three donors was spiked with three different concentrations of the active drug (i.e., the compound). The spiked blood samples and control samples spiked with diluent were tested with the TEG® 5000 Thrombelastograph® Hemostasis Analyzer (Haemonetics Corporation, Braintree, Mass., USA) using the Kaolin and RapidTEG® reagents (Haemonetics). Each sample was run in triplicate. All samples were tested with and without ecarin (purchased from Enzyme Research Laboratories, South Bend, IN). This study was IRB approved and all donors were over 18 and signed informed consent forms.
For the kaolin test, 1 mL of citrated blood sample was mixed with kaolin and 340 microliters (μL) of this blood was added to a TEG cup containing 20 μL of 0.2M CaCl2 for recalcification. The kaolin with ecarin test was performed in a similar fashion, using 20 μL of an ecarin/CaCl2 solution (0.16 M CaCl2; 19 EU/mL ecarin).
Ecarin is derived from the venom of the saw-scaled viper, Echis carinatus. Ecarin activates prothrombin (the precursor of thrombin—see FIG. 5). This activation of prothrombin by ecarin produces meizothrombin, a prothrombin-thrombin intermediate which has a low level of procoagulant enzymatic activity.
Healthy human volunteers (who are not being administered any anticoagulant), donated blood. Following donation, the blood collected from the donors (which was added to citrate to prevent clotting) was divided into portions, and portions of the blood were spiked with either nothing, dabigatran, or rivaroxaban. The portions were then assayed using thromboelastography, including assays performed in the presence of ecarin.

citrated whole blood [2] = test: RapidTEG (rTEG) test of blood spiked with anticoagulant; assay type: biochemical, human
Source text: as §1
The RapidTEG (rTEG) test incorporated both tissue factor and kaolin to generate the conventional kaolin parameters as well as the TEG-ACT parameter, which is measured in seconds. The TEG-ACT is equivalent to the Activated Clotting Time (see Chavez J. J. et al., Anesth. Analg. 99:1290-1294, 2004) and has a normal range of 86 to 118 seconds. A prolonged TEG-ACT time indicates slower clot formation. In addition, velocity curves derived from the above mentioned kaolin and rTEG tests were plotted using TEG software. These curves represent the speed of clot propagation (MRTG, Maximum Rate of Thrombus Generation; and TMRTG, Time to Maximum Rate of Thrombus Generation) (see FIG. 3B).
For the RapidTEG (rTEG) test, the reagent was reconstituted with 20 μL diluent water, and allowed to stand for 5 minutes per manufacturer instructions. Ten μL of this reconstituted reagent was added to the TEG cup with 20 μl 0.2M CaCl2 for recalcification.
(§2) 340 μL of the citrated blood sample was added to the cup with these two reagents, and the contents of the cup were mixed 3 times by drawing the contents of the cup up into the pipette and redispensing it into the cup. The test was started immediately after mixing and allowed to run until the MA parameter had defined. The rTEG with ecarin test was performed as the rTEG test above, using 20 μL of an ecarin/CaCl2 solution (0.16M CaCl2; 19EU/mL ecarin).

[3] = tested on: blood from healthy volunteers; test: Thromboelastography R time of spiked blood in the presence of the FXa reagent; assay type: biochemical, human; settings: in vitro spiking, increasing concentrations
Description: Blood from healthy volunteers known not to be taking any oral anticoagulant and without any other significant health issues are analyzed using the FXa or the Ecarin reagent in a TEG® hemostasis analyzer. The FXa reagent (i.e., the Factor Xa reagent) is used to detect the presence (or absence) of an anticoagulant in the blood component being tested. In absence of any oral anticoagulant, the FXa reagent will accelerate the clotting process and result in a very short R-time. In presence of direct thrombin inhibitors and/or anti-Factor Xa anticoagulant(s), the process is slowed down and will cause elongation of the R-time. This difference in R-time is utilized to detect the presence of the oral anticoagulant. The R-time generated from multiple donors was used to construct a reference range. Blood was spiked with either direct thrombin inhibitors or anti-Xa(s) at different concentrations and analyzed using the FXa reagent or the Ecarin reagent. The drug concentrations chosen represent the published therapeutic ranges for these two classes of drugs. This assay was repeated in multiple donors to account for possible donor variations.

[4] = cited from earlier work
citrated whole blood [5] = test: TEG Kaolin test of blood spiked with anticoagulant; assay type: biochemical, human
Source text: as §1
Dabigatran stock was prepared from the active dabigatran moiety (Alsachim, France) by dissolution in 0.1M HCl and further dilution in 1:1 DMSO:H20. […] Tubes of citrated blood were spiked with this dabigatran stock to create final concentrations of 500, 200, and 50 ng/mL of citrated whole blood.
Rivaroxaban stock was prepared by agitation of a 20 mg Xarelto tablet (Jannsen, Titusville, N.J.) in a 1:1 DMSO: H20 solution, which was diluted to a final concentration of 20 ng/uL rivaroxaban in 1:1 DMSO:H20. Tubes of citrated blood were spiked with this rivaroxaban stock to create final concentrations of 500, 89, and 22 ng/mL in citrated whole blood. […] Apixaban stock was prepared in a similar manner from a 2.5 mg Eliquis tablet (Bristol-Myers Squibb, New York, N.Y.), with final concentrations of 1000, 500, and 250 ng/mL in whole blood. Apixaban is approved for prevention of VTE in elective hip or knee replacement surgery (2.5 mg BID) and for prevention of stroke and systemic embolism in patients with non-valvular AF (5 mg BID) (see Bristol-Myers SP, EEIG. apixaban summary of product characteristics). […] Control samples, prepared for each tested drug, included a solvent control containing only citrated blood and the diluent used to dilute the drug stock, and an unadulterated citrate blood tube.
Testing was performed on TEG-5000 analyzers (Haemonetics Corp., Braintree, Mass., USA) using Kaolin vials, 0.2M CaCl2, RapidTEG (rTEG) vials, diluent water, and disposable clear cups and pins provided by the manufacturer (Haemonetics, Braintree, Mass.), and ecarin (Enzyme Research Laboratories, South Bend, Ind.). All testing was performed in triplicate at each dose, and allowed to continue until the MA (maximum amplitude) parameter defined. The various components of the TEG tracing are depicted in FIG. 3A. The Kaolin test generates an R parameter, which is measured in minutes, and is the time elapsed from the initiation of the test until the point where the onset of clotting provides enough resistance to produce a 2 mm amplitude reading on the TEG tracing. This parameter represents the initiation phase of coagulation related to the function of enzymatic clotting factors. The R parameter has a normal range of 5 to 10 min for kaolin. A prolonged R time indicates slower clot formation. K is a measurement of the time interval from the split point to the point where fibrin cross-linking provides enough clot resistance to produce a 20 mm amplitude reading. The α angle is the angle formed by the slope of a tangent line traced from the R to the K time and a central line measured in degrees. K time and the α angle denote the rate at which the clot strengthens, and is representative of thrombin's cleaving of the available fibrinogen into fibrin. The MA indicates the point at which clot strength reaches its maximum amplitude, measured in millimeters on the TEG tracing, and reflects the end result of maximal platelet-fibrin interaction via the GPIIb-IIIa receptors (see Khurana S et al., J Lab Clin Med. 130:401-411, 1997). […]

citrated whole blood [6] = test: rTEG with ecarin test of spiked blood; assay type: biochemical, human
Source text: as §1, §2

porcine plasma = test: TEG 6S DTI channel R-time, porcine experimental trauma model; assay type: in vivo
Description: The TEG®6S system (Haemonetics Corp., Braintree, Mass.) is based on viscoelasticity measurements using resonance frequency and disposable multi-channel microfluidic cartridges. Blood and plasma from healthy volunteers were spiked with dabigatran in the therapeutic range (in increasing concentrations) and tested with an OAC cartridge with an ecarin based, direct thrombin inhibitor (DTI) channel. This channel was also evaluated with porcine plasma from an experimental trauma model (n=6) where dabigatran levels were measured with dilute TT (Hemoclot®). TEG 6s R-time (reaction time) was correlated to the drug levels.

Question: With `COc1ccc(-n2nc(C(N)=O)c3c2C(=O)N(c2ccc(N4CCCCC4=O)cc2)CC3)cc1` [apixaban, Apixaban] as the molecule, how does the “R time in the presence versus absence of ecarin” value (citrated whole blood [1]; FIGS. 8A-8C) read?
Answer: equivalent and significant shortening of R time

Question: And the “MA values with ecarin relative to samples run without ecarin” value (citrated whole blood [1]; kaolin test)?
Answer: statistically different

Question: And the “R, K and TMRTG values on addition of ecarin to the kaolin test” value (citrated whole blood [1]; treated and control groups)?
Answer: significant decrease

Question: What about the “α and MRTG values on addition of ecarin to the kaolin test” value (citrated whole blood [1]; treated and control groups) of the same molecule?
Answer: significant increase

Question: And the “K, α and MRTG parameters versus control or between studied concentrations” value (citrated whole blood [2])?
Answer: did not show any statistical difference

Question: What about the “TMRTG parameter sensitivity to presence of drug” value (citrated whole blood [2]) of the same molecule?
Answer: not

Question: What about the “MA values versus control” value (citrated whole blood [2]; all studied concentrations) of the same molecule?
Answer: did not change

Question: What about the “TEG ACT parameter versus control group” value (citrated whole blood [2]; all tested concentrations (except rivaroxaban 22 ng/mL)) of the same molecule?
Answer: significantly different

Question: What about the “ACT time versus non-spiked blood sample” value (citrated whole blood [2]; medium and higher concentrations) of the same molecule?
Answer: significantly higher

Question: And the “R-time compared to the reference range, FXa reagent” value [3]?
Answer: dose dependent elongation of the R-time

Question: What about the half-lives compared ([4]; in vivo) of the same molecule?
Answer: shorter half-lives than dabigatran

Question: What about the Cmax ([4]; oral dose of 20 mg) of the same molecule?
Answer: 460 ng/mL

Question: And the increased half-life ([4]; patients with severe renal impairment compared to healthy volunteers)?
Answer: up to 44%

Question: What about the “MA versus control group” value (citrated whole blood [5]; 250 ng/mL, still within normal range) of the same molecule?
Answer: significantly different from the control group

Question: What about the “R time versus non-spiked blood sample” value (citrated whole blood [5]; highest concentration tested) of the same molecule?
Answer: significantly higher

Question: And the “R, K, α, and MRTG parameters, statistical significance versus control” value (citrated whole blood [5]; three concentrations per drug, Example 1)?
Answer: able to detect the presence of all tested concentrations

Question: And the “TEG-ACT times on addition of ecarin to the RapidTEG test” value (citrated whole blood [6])?
Answer: significantly decreases

Question: And the “RapidTEG α angle when ecarin was added” value (citrated whole blood [6]; any of the studied concentrations)?
Answer: did not change

Question: And the “RapidTEG K values when ecarin was added” value (citrated whole blood [6]; highest and lowest concentrations)?
Answer: significantly decreased

B1: idarucizumab: reversal agent that reverses the anticoagulant effect of dabigatran (Boehringer Ingelheim) (antibody, chains of the INN, looked up, V domains shown)
VH: QVQLQESGPGLVKPSETLSLTCTVSGFSLTSYIVDWIRQPPGKGLEWIGVIWAGGSTGYNSALRSRVSITKDTSKNQFSLKLSSVTAADTAVYYCASAAYYSYYNYDGFAYWGQGTLVTVSS
VL: DVVMTQSPLSLPVTLGQPASISCKSSQSLLYTDGKTYLYWFLQRPGQSPRRLIYLVSKLDSGVPDRFSGSGSGTDFTLKISRVEAEDVGVYYCLQSTHFPHTFGGGTKVEIK
Question: Which “R-time after administration of the reversal agent” value (porcine plasma; after dabigatran, trauma model, baseline 3.4±0.6 min) does the source give for B1 here?
Answer: 3.6 ± 0.6 min

Question: What about the “R time upon administration of the reversal agent” value (porcine plasma; five separate swine plasma samples, FIG. 16) of the same molecule?
Answer: returned to baseline
